Results taken from patent US8506930B2, “Compounds having affinity for amyloid” (Nihon Medi-Physics Co., Ltd., priority 2006, dated 2013).
Values belong to the molecule of their own block, whether it stands above or below them.

Experiments:
[1] = tested on: Salmonella typhimurium TA100; assay: Reverse mutation test (Ames test), TA100; type: cell-based
Protocol: (§1) In order to examine mutagenicity of Compound I-1, I-2, I-4 and I-5, reverse mutation test using Salmonella typhimurium TA98 and TA100 (hereinafter referred to as Ames test) was conducted.
(§2) The test was conducted without addition of S9mix and with addition of S9mix. Dimethylsulfoxide was used as a negative control. A positive control was 2-(2-furyl)-3-(5-nitro-2-furyl)acrylamide in case S9mix was not added, and 2-aminoanthracene in case S9mix was added.
(§3) The amount of each sample to be added to the test plate was 7 dosages (geometric ratio 4) with the maximum dose being 1250 μg/plate for Compounds I-1 and I-5, and 7 dosages (geometric ratio 3) with the maximum dose being 5000 μg/plate for Compounds I-2 and I-4. After a sample to be examined and a strain (TA98 or TA100), or a sample to be examined, S9mix and the strain were mixed together, the mixture was multilayered using soft agar on a medium of a test plate, and then incubated at 37° C. for 48 hours.

[2] = tested on: Salmonella typhimurium TA98 and TA100; assay: Reverse mutation test (Ames test), overall judgment; type: cell-based; details: TA98 and TA100, with and without S9mix
Protocol: as §1, §2, §3

[3] = tested on: Salmonella typhimurium TA98; assay: Reverse mutation test (Ames test), TA98; type: cell-based
Protocol: as §1, §2, §3

[4] = tested on: Chinese Hamster fibroblast cell line (CHL/IU cell); assay: Chromosome aberration test; type: cell-based; details: short-term treatment with or without S9 and 24-hour continuous treatment; 0.15-1.2 mg/mL
Protocol: In order to examine whether Compound I-4 can induce chromosome aberration, the chromosome aberration test was conducted using Chinese Hamster fibroblast cell line (CHL/IU cell) in a culture system with or without addition of S9 by short-term treatment process and in a 24-hour culture system by continuous treatment process. The addition amount of a sample to be tested was set to 1.2, 0.6, 0.3, and 0.15 mg/mL for all the respective culture systems.

[5] = tested on: bone marrow cells of Crlj:CD1(ICR) male mouse; assay: Micronucleus test; type: in vivo; details: for appearance frequency of MNPCE as compared to the negative control group: 24 and 48 hours after single administration
Protocol: In order to study mutagenicity (in vivo) of Compound I-4, induction of micronucleated polychromatic erythrocyte (hereinafter referred to as MNPCE) was examined using bone marrow cells of Crlj:CD1(ICR) male mouse.
0 mg/kg (negative control group), 250, 500, 1000 and 2000 mg/kg (test sample group) were set as doses for the test. Mice were sacrificed 24 and 48 hours after single oral administration, and bone marrow smear was prepared and observed. Further, a single dose of MMC at 2 mg/kg was abdominally administrated in positive control group, mice were sacrificed 24 hours after the administration, and then bone marrow smear was prepared and observed.
As statistical analysis, significance tests were conducted by Wilcoxon rank sum test for the appearance frequency of MNPCE and the ratio of polychromatic erythrocyte (hereinafter referred to as PCE) to the total red blood cell (hereinafter referred to as RBC) in each administration group concerning the test sample and positive control groups relative to the negative control group and concerning these groups relative to each other where the significance level was set to less than 5% and less than 1%, respectively.

[6] = Transferability into brain and clearance, Examples I-20 to I-21; type: in vivo, male Wistar rats; details: rats, intravenous injection, Table 1-7
Text: Three animals were used for Experiment I-20 and Comparative Experiment I-9, and two animals were used for Experiment I-21 at the respective time points.

[7] = tested on: intracerebral amyloid (aggregated Aβ1-42 injected into amygdaloid nucleus); assay: Confirmation of imaging of amyloid in brain (ex vivo autoradiogram), Examples II-12 and II-13; design: species or system male Wistar rat; details: for radioactive accumulation at sites other than amyloid injected sites: autoradiogram, 60 minutes after tail vein injection; for accumulation of radioactivity in amygdaloid nucleus on the side to which the physiological saline solution was injected: brain slice 60 minutes after tail vein injection
Protocol: (§4) The same procedures as in Example II-12 were performed except using a 10 mg/mL solution of Compound II-2 in ascorbic acid (the radioactive concentration of the sample solution was 25 MBq/mL).

[8] = target: T1, intracerebral amyloid (aggregated Aβ1-42 injected into amygdaloid nucleus) (Homo sapiens, UniProt P05067); assay: as above; design: species or system male Wistar rat; details: brain slice 60 minutes after tail vein injection
T1 construct: Aβ1-42 (Wako) was dissolved in phosphate buffer (pH 7.4); purchased Wako
T1 sequence (P05067 672-713): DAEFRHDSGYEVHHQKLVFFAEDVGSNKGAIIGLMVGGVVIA
Protocol: as §4

[9] = Transferability into brain and clearance, Examples II-10 to II-11; type: in vivo, male Wistar rats; details: rats, intravenous injection, Table 2-5
Protocol: 0.05 mL each of the prepared sample solutions was injected under thiopental anesthesia into the tail vein of the rats. The rats were sacrificed by bleeding from abdominal artery, and brains were removed and subjected to measurement of mass of brains and further subjected to measurement of radioactivity (hereinafter referred to as A in this Example) with a single channel analyzer (detector type SP-20 manufactured by OHYO KOKEN KOGYO Co., Ltd.) 2, 5, 30, and 60 minutes after the injection. Further, the radioactivity level of the rest of the whole body was measured in the same manner as above (hereinafter referred to as B in this Example). Using these measurement results, radioactive distribution per unit weight of brain (% ID/g) at the respective time points were calculated in accordance with the following formula (2-3).
Three animals were used for the experiment at the respective time points.

[10] = Partition coefficient based on the octanol extraction method, Examples II-8 to II-9; type: physicochemical; details: octanol / 10 mmol/L phosphate buffer (pH 7.4); Table 2-4
Protocol: To 2 mL of octanol, 10 μL each of the prepared sample solutions was added, 2 mL of 10 mmol/L phosphate buffer (pH 7.4) was added, followed by stirring for 30 seconds. After the mixture was centrifuged with a low-speed centrifuge (2000 rpm×60 min.), the octanol layer and the water layer were sampled each in an amount of 1 mL, and subjected to measurement of radioactivity count with an autowell gamma system (Type: ARC-301B, manufactured by Aloka). Using the obtained radioactivity count, log Poctanol was calculated in accordance with the equation (2-2).

[11] = target: T2, amyloid (aggregated Aβ1-42) (Homo sapiens, UniProt P05067); assay: Measurement of affinity with amyloid (inhibition of [125I]3′-I-BTA-0 binding), Example II-7; details: [125I]3′-I-BTA-0 400 pmol/L, amyloid 1 μmol/L, 1% bovine serum albumin-containing phosphate buffer (pH 7.4)
T2 construct: Aβ1-42 (Wako) was dissolved in phosphate buffer (pH 7.4); purchased Wako
T2 sequence (P05067 672-713 limits assumed): as the sequence (P05067 672-713) above
Text: Then, each sample solution was filtered through a glass fiber filter (trade name: Mulutiscreen™-FC, manufactured by Millipore), to separate the [^125I]3′-I-BTA-0 attached to amyloid from the free [^125I]3′-I-BTA-0.
The measured radioactivity level was defined as the background radioactivity level, and used in the calculation of the inhibition ratio (hereinafter referred to as BG).
A graph in which values converted by probit transformation from the obtained inhibition ratios were plotted relative to logarithms of concentrations of compounds for evaluation was prepared to obtain an approximate straight line by the least square method.

[12] = International Publication WO03/106439 pamphlet; cited from earlier work
[13] = normal mice, [125I]-labeled, cited from earlier work; for transfer into brain: 2 minutes after administration

Compound: FCCCOc1ccc(-c2cn3cc(Br)ccc3n2)cc1 [Compound I-1, 6-bromo-2-[4′-(3″-fluoropropoxy)phenyl]imidazo[1,2-a]pyridine]
Mutagenicity, TA100 ([1]; With addition of S9mix): Negative | Mutagenicity, TA100 ([1]; Without addition of S9mix): Negative | judgment in the Ames test [2]: negative | Mutagenicity, TA98 ([3]; With addition of S9mix): Negative | Mutagenicity, TA98 ([3]; Without addition of S9mix): Negative

Compound: FCCCOc1ccc(-c2cn3cc(I)ccc3n2)cc1 [Compound I-2, 2-[4′-(3″-fluoropropoxy)phenyl]-6-iodoimidazo[1,2-a]pyridine]
Mutagenicity, TA100 ([1]; With addition of S9mix): Negative | Mutagenicity, TA100 ([1]; Without addition of S9mix): Negative | judgment in the Ames test [2]: negative | Mutagenicity, TA98 ([3]; With addition of S9mix): Negative | Mutagenicity, TA98 ([3]; Without addition of S9mix): Negative

Compound: FCCOc1ccc(-c2cn3cc(I)ccc3n2)cc1 [Compound I-4, 2-[4′-(2″-fluoroethoxy)phenyl]-6-iodoimidazo[1,2-a]pyridine]
appearance frequency of cells having structural aberration or numerical aberration (diploid) [4]: comparable to that of the negative control group | capability of inducing chromosome aberration (judgment) [4]: negative | appearance frequency of MNPCE as compared to the negative control group ([5]; mouse bone marrow): no statistically significant difference | ratio of PCE to RBC as compared to the negative control group ([5]; mouse bone marrow, 24 and 48 hours after single oral administration, 250-2000 mg/kg): no statistically significant difference | mutagenicity (in vivo) judgment ([5]; single oral administration, 250-2000 mg/kg): negative | Mutagenicity, TA100 ([1]; With addition of S9mix): Negative | Mutagenicity, TA100 ([1]; Without addition of S9mix): Negative | judgment in the Ames test [2]: negative | Mutagenicity, TA98 ([3]; With addition of S9mix): Negative | Mutagenicity, TA98 ([3]; Without addition of S9mix): Negative

Compound: FCCCOc1ccc(-c2cn3cc(I)cnc3n2)cc1 [Compound I-5, 2-[4′-(3″-fluoropropoxy)phenyl]-6-iodoimidazo[1,2-a]pyrimidine]
Mutagenicity, TA100 ([1]; With addition of S9mix): Negative | Mutagenicity, TA100 ([1]; Without addition of S9mix): Negative | judgment in the Ames test [2]: negative | Mutagenicity, TA98 ([3]; With addition of S9mix): Negative | Mutagenicity, TA98 ([3]; Without addition of S9mix): Negative

Radioactive distribution in brain per unit weight, After 2 min. ([6]; 2 min.): 1.20 % ID/g | Radioactive distribution in brain per unit weight, After 5 min. ([6]; 5 min.): 0.75 % ID/g | Radioactive distribution in brain per unit weight, After 30 min. ([6]; 30 min.): 0.18 % ID/g | Radioactive distribution in brain per unit weight, After 60 min. ([6]; 60 min.): 0.12 % ID/g
Compound: [18F]CCCOc1ccc(-c2cn3cc(Br)ccc3n2)cc1 [Compound I-8, 6-bromo-2-[4′-(3″-[^18F]fluoropropoxy)phenyl]imidazo[1,2-a]pyridine]

Compound: OCCOc1ccc(-c2cn3cc([123I])ccc3n2)cc1 [Compound II-1, 2-[4′-(2″-hydroxyethoxy)phenyl]-6-[^123I]iodoimidazo[1,2-a]pyridine]
radioactive accumulation at sites other than amyloid injected sites [7]: little radioactive accumulation at the sites other than amyloid injected sites | accumulation of radioactivity in amygdaloid nucleus on the side to which the physiological saline solution was injected [7]: no significant accumulation of radioactivity | accumulation of radioactivity in amygdaloid nucleus on the side to which the amyloid suspension was injected [8]: marked accumulation of radioactivity | Radioactive distribution in brain per unit weight, After 2 min. [9]: 0.90 % ID/g | Radioactive distribution in brain per unit weight, After 5 min. [9]: 0.52 % ID/g | Radioactive distribution in brain per unit weight, After 30 min. [9]: 0.06 % ID/g | Radioactive distribution in brain per unit weight, After 60 min. [9]: 0.01 % ID/g | logPoctanol value [10]: 1.8

accumulation of radioactivity in amygdaloid nucleus on the side to which the amyloid suspension was injected [8]: marked accumulation of radioactivity | Radioactive distribution in brain per unit weight, After 2 min. [9]: 0.89 % ID/g | Radioactive distribution in brain per unit weight, After 5 min. [9]: 0.66 % ID/g | Radioactive distribution in brain per unit weight, After 30 min. [9]: 0.13 % ID/g | Radioactive distribution in brain per unit weight, After 60 min. [9]: 0.04 % ID/g | logPoctanol value [10]: 2.1
Compound: CCOc1ccc(-c2cn3cc([123I])ccc3n2)cc1 [Compound II-2, 2-(4′-ethoxyphenyl)-6-[^123I]iodoimidazo[1,2-a]pyridine]
radioactive accumulation at sites other than amyloid injected sites [7]: some radioactive accumulation in sites other than amyloid injected sites, but the accumulation was highly suppressed as compared to ^123I-IMPY | accumulation of radioactivity in amygdaloid nucleus on the side to which the physiological saline solution was injected [7]: no significant accumulation of radioactivity

IC50 [11]: < 0.1 µM
Compound: OCCOc1ccc(-c2cn3cc(I)ccc3n2)cc1 [Compound II-3, 2-[4′-(2″-hydroxyethoxy)phenyl]-6-iodoimidazo[1,2-a]pyridine]

IC50 [11]: > 1 µM
Compound: Nc1c(/N=N/c2ccc(-c3ccc(/N=N/c4cc(S(=O)(=O)O)c5ccccc5c4N)cc3)cc2)cc(S(=O)(=O)O)c2ccccc12 [Congo Red, reference compound]

Compound: CC(=C(C#N)C#N)c1ccc2cc(N(C)CCF)ccc2c1 [FDDNP, 2-(1-{6-[(2-fluoroethyl)(methyl)amino]-2-naphthyl}ethylidene)malononitrile]
reverse mutation test result [12]: positive

Compound: CN(C)c1ccc(-c2nc3ccc(I)cc3o2)cc1 [IBOX, 6-iodo-2-[4′-(N,N-dimethylamino)phenyl]benzoxazole]
transfer into brain [13]: transferred into brain | clearance from normal tissues [13]: insufficient in clearance from normal tissues

Compound: CO[C@@]12[C@H](COC(N)=O)C3=C(C(=O)C(C)=C(N)C3=O)N1C[C@@H]1N[C@@H]12 [MMC, reference compound]
appearance frequency of MNPCE as compared to the negative control group ([5]; mouse bone marrow): significant increase

Compound: CN(C)c1ccc(-c2nc3ccc(I)cc3s2)cc1 [TZDM, 6-iodo-2-[4′-(N,N-dimethylamino)phenyl]benzothiazole]
transfer into brain [13]: transferred into brain | clearance from normal tissues [13]: insufficient in clearance from normal tissues

Compound: CN(C)c1ccc(/C=C/c2ccc(I)cc2)cc1 [m-I-SB, (E)-4-dimethylamino-4′-iodostilbene]
transfer into brain [13]: transferred into brain | clearance from normal tissues [13]: insufficient in clearance from normal tissues
